In paper PMC10577698, “Development of Novel ^11C-Labeled Selective Orexin-2 Receptor Radioligands for Positron Emission Tomography Imaging” (ACS Medicinal Chemistry Letters, 2023):
Like-named read-outs stand apart in the source and are kept apart here.

Columns and labels:
CYP3A4 = CYP3A4 (Homo sapiens, UniProt P08684); assay: biochemical
Description: (§1) CYP enzymes and hERG inhibition assays were finished by Reaction Biology Corporation.

hERG = hERG (Homo sapiens, UniProt Q12809); assay: biochemical
Description: (§2) Human OX2 receptor binding (agonist radioligand) assays were finished by Gifford
(§3) Bioscience Limited. Competition binding assays were carried out in 96-well polypropylene
(§4) plates in a final volume of 250 µL per well. To each well were added 150 µL Human OX2
(§5) Receptor Membranes (MultiSpan Inc, MC1034), 50 µL of non-specific or test compound
(§6) or buffer (50 mM Tris, 5 mM MgCl2, 0.1 mM EDTA, pH 7.4), and 50 µL radioligand
(§7) ([3H]EMPA) solution in the buffer. The plate was incubated at 30 °C for 60 minutes with
(§8) gentle agitation. The incubation was stopped by vacuum filtration onto presoaked (Tris
(§9) buffer with PEI) GF/C filters using a 96-well FilterMate™ harvester, followed by 5 washes
(§10) with ice-cold wash buffer (50 mM Tris, 5 mM MgCl2, 0.1 mM EDTA, pH 7.4). Filters were
(§11) then dried under a warm air stream and sealed in polyethylene, a scintillation cocktail was
(§12) specific binding. Data were fitted using the non-linear curve fitting routines in Prism®
(§13) (Graphpad Software Inc) to determine IC50. Ki was subsequently calculated using the
as §1

CYP2D6 = CYP2D6 (Homo sapiens, UniProt P10635); assay: biochemical
Description: as §1

CYP19A = target: T1, CYP19A (Homo sapiens, UniProt P11511)
T1 sequence (P11511 1-503): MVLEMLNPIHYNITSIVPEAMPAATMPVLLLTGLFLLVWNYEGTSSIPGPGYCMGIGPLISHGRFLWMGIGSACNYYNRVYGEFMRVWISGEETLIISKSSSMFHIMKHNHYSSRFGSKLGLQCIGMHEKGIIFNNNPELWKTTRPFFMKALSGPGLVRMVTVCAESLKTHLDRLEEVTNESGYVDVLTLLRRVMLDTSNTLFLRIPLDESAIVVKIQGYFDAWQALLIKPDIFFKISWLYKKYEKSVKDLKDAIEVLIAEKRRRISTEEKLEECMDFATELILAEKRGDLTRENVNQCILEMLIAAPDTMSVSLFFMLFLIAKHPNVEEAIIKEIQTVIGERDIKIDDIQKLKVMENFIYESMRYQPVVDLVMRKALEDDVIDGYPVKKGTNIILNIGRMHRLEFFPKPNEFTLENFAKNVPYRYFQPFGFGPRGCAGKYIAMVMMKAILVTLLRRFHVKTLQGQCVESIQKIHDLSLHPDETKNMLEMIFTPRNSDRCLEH

human orexin 2 receptor = target: T2, human orexin 2 receptor (Homo sapiens, UniProt O43614); assay: Human OX2 receptor radioligand ([3H]EMPA) competition binding assay; conditions: for Selectivity (OX2R/OX1R): Figure 4b
T2 sequence (O43614 1-444): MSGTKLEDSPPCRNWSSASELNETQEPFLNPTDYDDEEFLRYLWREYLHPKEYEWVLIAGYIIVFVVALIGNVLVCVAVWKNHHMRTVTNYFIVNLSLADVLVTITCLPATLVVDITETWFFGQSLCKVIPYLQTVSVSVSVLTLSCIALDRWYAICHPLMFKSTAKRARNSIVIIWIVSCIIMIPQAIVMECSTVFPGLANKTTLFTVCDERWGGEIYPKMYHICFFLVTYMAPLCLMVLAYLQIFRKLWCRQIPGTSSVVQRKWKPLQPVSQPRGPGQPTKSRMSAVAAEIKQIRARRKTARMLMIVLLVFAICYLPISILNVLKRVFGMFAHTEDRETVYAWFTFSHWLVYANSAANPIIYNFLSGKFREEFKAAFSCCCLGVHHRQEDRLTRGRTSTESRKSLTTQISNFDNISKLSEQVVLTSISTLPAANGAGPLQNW
Description: as §2, §3, §4, §5, §6, §7, §8, §9, §10, §11, §12, §13, §1

CYP2C19 = CYP2C19 (Homo sapiens, UniProt P33261); assay: biochemical
Sequence of CYP2C19 (P33261 whole entry, species assumed): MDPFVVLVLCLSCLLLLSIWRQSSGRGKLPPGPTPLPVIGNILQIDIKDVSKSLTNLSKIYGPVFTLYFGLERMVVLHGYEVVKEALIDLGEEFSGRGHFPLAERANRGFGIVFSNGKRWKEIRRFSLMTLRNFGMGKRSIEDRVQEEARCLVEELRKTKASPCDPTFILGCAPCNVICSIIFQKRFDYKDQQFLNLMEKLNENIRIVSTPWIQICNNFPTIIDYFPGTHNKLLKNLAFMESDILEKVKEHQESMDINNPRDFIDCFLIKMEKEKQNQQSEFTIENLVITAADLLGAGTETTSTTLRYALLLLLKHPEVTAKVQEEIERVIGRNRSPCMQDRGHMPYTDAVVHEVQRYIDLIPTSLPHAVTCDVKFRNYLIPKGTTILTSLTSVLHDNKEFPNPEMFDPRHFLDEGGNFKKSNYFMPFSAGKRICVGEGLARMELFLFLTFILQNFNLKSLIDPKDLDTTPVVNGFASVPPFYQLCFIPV
Description: as §1

CYP1A2 = target: T3, CYP1A2 (Homo sapiens, UniProt P05177); assay: CYP450 inhibition assay
T3 sequence (P05177 1-516): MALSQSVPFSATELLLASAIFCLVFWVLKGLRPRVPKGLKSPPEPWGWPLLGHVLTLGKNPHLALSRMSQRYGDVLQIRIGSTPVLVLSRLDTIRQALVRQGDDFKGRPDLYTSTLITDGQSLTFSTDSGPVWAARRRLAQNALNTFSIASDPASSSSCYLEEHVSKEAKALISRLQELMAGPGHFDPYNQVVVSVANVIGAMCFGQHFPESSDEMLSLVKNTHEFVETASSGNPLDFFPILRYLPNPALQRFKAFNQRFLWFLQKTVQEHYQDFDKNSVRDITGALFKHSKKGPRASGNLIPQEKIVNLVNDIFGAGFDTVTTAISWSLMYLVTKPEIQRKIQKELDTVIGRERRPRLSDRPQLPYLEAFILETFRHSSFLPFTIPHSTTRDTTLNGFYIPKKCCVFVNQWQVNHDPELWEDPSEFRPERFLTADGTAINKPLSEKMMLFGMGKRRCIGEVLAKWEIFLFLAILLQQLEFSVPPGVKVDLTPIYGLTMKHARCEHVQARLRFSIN
Description: as §2, §3, §4, §5, §6, §7, §8, §9, §10, §11, §12, §13, §1

[1] = target: peripheral benzodiazepine receptor (Rattus norvegicus, UniProt P16257); assay: Off-target binding (NIMH PDSP), peripheral benzodiazepine receptor
CYP2C9 = CYP2C9 (Homo sapiens, UniProt P11712); assay: biochemical
Sequence of CYP2C9 (P11712 whole entry, species assumed): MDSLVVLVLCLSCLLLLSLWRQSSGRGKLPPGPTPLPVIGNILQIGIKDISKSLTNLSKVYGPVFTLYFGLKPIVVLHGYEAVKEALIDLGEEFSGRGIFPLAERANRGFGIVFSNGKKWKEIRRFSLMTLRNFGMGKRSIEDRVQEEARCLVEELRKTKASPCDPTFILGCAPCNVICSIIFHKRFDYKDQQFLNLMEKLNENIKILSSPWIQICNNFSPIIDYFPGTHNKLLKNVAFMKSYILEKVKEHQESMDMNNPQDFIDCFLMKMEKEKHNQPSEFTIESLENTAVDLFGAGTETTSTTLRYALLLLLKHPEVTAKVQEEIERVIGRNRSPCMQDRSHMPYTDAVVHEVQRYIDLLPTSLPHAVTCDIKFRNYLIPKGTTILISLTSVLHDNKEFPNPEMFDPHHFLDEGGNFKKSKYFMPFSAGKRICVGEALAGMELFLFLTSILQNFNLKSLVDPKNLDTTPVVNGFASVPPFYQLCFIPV
Description: as §2, §3, §4, §5, §6, §7, §8, §9, §10, §11, §12, §13, §1

orexin 2 receptors = target: T4, orexin 2 receptors (Rattus norvegicus, UniProt P56719); assay: In vitro autoradiography in rat brain sections; conditions: for effect of blocker on radioactivity in OX2-rich brain regions: blocker 10 μM, autoradiography with [11C]1 or [11C]2, rat brain sections; for in vitro binding specificity: rat brain sections, autoradiography
T4 sequence (P56719 1-460): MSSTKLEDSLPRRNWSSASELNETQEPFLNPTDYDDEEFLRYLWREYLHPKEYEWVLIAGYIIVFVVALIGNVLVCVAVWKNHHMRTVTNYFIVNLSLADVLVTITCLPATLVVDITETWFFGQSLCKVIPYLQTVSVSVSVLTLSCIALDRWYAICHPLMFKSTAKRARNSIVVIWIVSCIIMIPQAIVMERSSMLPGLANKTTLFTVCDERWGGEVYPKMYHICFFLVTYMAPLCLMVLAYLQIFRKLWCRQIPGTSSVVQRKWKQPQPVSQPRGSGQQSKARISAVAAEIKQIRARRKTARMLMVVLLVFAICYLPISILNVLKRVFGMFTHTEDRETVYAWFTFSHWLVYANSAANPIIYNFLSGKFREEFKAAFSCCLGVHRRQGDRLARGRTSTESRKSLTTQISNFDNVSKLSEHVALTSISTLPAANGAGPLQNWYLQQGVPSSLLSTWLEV
Description: 2.5 In vitro autoradiography
The method for in vitro autoradiography was slightly modified from previous reports. 5 Rat
brain was cut into 20 μm sections, stored at −80 °C, and ready for the experiment. The rat
brain sections were preincubated with Tris−HCl buffer (50 mM) containing MgCl2 (2 mM)
and CaCl2 (1.2 mM) for 20 min at ambient temperature, followed by incubation with [11C]1
added to incubation solution. Then the brain sections were washed with ice-cold buffer for
three times and dipped in cold distilled water for 10 s. The brain sections were dried with
cold air. The exposure time for the phosphor plate in the autoradiography study is 1 h .

[2] = Stability of radiotracer in saline; assay type: physicochemical; conditions: within 90 min
Description: Based on the favorable in vitro pharmacological and ADME properties, compounds 1 and 2 were labeled with carbon-11 and evaluated as OX2 PET radioligands. […] The reaction mixtures were then diluted with the HPLC buffer and purified by a semipreparative reverse HPLC to give [^11C]1 and [^11C]2 in 71% and 20% radiochemical yields (decay-corrected) with the molar activities of 210 GBq/μmol and 185 GBq/μmol, respectively.

rat brain = assay: Dynamic PET imaging in Sprague-Dawley rats
Description: The imaging studies were conducted according to the previous literature6,7 with minor
modifications. PET scans were carried out by an Inveon PET scanner. Sprague-Dawley
rats were kept under anesthesia with 1-2% (v/v) isoflurane during the scan. The radiotracer
[11C]1 (37–42 MBq) or [11C]2 (32–37 MBq) was injected via a preinstalled catheter into
the tail vein. A dynamic scan in 3D mode was acquired for 60 min. For blocking studies, a
solution of elacridar (3 mg/kg) in 300 µL saline containing 10% DMSO, 40% polyethylene
glycol, and 5% Tween® 80 was injected at 20 min via the pre-embedded tail vein catheter
before PET tracer injection. An MR template of SD rats was applied for PET/MR merged
images. The radioactivity was decay-corrected and expressed as the standardized uptake
value (SUV). SUV = (radioactivity per mL tissue / injected radioactivity) x body weight.

OX2R = test system: OX2R; set-up: method as in PMID 19751316; conditions: cited from earlier work
[3] = SD rats pretreated with Elacridar 3 mg/kg 20 min before tracer

Sequence of CYP2D6 (P10635 whole entry, species assumed): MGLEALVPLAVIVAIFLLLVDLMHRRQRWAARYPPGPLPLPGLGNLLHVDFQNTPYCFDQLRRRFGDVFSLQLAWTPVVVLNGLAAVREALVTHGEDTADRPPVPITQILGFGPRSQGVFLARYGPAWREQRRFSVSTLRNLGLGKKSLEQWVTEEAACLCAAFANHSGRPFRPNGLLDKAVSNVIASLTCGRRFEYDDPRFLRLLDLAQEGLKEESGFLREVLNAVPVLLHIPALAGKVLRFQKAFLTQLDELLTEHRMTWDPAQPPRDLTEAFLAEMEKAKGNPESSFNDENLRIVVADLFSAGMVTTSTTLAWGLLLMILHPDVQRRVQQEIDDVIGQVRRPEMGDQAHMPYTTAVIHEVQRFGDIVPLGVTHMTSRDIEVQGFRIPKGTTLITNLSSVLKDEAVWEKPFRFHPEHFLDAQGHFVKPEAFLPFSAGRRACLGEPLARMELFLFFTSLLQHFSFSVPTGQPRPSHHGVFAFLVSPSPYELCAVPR
Sequence of CYP3A4 (P08684 whole entry, species assumed): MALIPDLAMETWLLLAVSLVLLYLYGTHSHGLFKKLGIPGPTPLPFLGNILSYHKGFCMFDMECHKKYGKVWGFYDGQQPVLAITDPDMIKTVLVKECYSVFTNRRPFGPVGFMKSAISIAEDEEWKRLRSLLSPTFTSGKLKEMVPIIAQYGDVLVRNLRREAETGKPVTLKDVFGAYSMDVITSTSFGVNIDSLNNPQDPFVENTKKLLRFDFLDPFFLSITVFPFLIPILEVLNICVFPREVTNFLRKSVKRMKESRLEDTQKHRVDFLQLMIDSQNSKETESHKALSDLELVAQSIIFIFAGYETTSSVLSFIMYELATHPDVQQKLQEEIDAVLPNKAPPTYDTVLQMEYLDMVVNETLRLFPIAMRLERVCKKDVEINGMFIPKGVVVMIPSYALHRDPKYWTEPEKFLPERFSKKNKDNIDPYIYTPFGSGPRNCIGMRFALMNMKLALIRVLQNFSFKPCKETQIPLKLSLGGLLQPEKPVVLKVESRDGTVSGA
Sequence of hERG (Q12809 whole entry): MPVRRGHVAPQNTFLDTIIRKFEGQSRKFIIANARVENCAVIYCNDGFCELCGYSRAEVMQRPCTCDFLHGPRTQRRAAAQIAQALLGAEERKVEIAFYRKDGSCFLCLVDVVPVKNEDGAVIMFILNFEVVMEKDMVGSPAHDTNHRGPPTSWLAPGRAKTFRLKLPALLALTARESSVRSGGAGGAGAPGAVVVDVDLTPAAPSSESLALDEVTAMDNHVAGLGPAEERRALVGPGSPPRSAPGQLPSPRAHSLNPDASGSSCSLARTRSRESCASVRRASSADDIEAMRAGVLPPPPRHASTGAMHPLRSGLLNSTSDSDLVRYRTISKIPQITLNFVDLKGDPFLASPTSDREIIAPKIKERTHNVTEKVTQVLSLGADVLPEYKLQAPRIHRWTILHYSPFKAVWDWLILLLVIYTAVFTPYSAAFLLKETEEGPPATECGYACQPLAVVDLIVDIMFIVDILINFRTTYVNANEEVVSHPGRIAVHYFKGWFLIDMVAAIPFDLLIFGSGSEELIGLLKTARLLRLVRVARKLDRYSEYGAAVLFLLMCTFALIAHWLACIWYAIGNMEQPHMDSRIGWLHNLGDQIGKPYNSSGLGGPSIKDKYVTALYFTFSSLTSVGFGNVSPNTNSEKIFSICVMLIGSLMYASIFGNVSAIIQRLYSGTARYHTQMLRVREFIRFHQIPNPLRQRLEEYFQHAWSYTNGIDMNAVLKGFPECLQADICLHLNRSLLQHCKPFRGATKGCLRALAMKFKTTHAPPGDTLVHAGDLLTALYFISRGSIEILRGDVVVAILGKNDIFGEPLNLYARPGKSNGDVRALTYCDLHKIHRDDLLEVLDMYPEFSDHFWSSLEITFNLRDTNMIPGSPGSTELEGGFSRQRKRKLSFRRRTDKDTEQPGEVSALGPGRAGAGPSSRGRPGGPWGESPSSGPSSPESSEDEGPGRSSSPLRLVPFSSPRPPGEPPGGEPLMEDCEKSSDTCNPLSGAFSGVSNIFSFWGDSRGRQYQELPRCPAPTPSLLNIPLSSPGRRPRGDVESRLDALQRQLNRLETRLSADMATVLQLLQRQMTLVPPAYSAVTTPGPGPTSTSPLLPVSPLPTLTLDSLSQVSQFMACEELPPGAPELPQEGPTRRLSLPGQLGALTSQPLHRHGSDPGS

Molecule	IC50 (CYP3A4) [µM]	IC50 (hERG) [µM]	IC50 (CYP2D6) [µM]	IC50 (CYP19A) [µM]	Ki (human orexin 2 receptor) [µM]	target selectivity OX2/OX1 (human orexin 2 receptor) [folds]	Selectivity (OX2R/OX1R) (human orexin 2 receptor)	IC50 (CYP2C19) [µM]	IC50 (CYP1A2) [µM]	IC50 (CYP2C9) [µM]	effect of blocker on radioactivity in OX2-rich brain regions (orexin 2 receptors)	stability in saline [2]	in vitro binding specificity (orexin 2 receptors)	further results
CCN(Cc1ccccc1)C(=O)CN(c1ccccc1OC)S(=O)(=O)c1ncccc1C [Compound 1]	> 5	> 100	> 5	> 5	0.0036	> 600	601	> 5	> 5	> 5	remarkably diminished the radioactivity			IC50 (human orexin 2 receptor): 0.0071 µM; Ki [1]: 0.253 µM
CCN(Cc1ccccc1)C(=O)CN(c1ccc(OC)nc1)S(=O)(=O)c1ncccc1C [Compound 2]	> 5	> 100	> 5	> 5	0.0022	> 600	1220	> 5	> 5	> 5	remarkably diminished the radioactivity			IC50 (human orexin 2 receptor; read-out: IC50/OX2, [3H]EMPA competition, human OX2 receptor membranes): 0.0044 µM
CCN(Cc1ccccc1)C(=O)CN(c1ccccc1O[11CH3])S(=O)(=O)c1ncccc1C [[^11C]1]												stable	good to excellent in vitro binding specificity	
CCN(Cc1ccccc1)C(=O)CN(c1ccc(O[11CH3])nc1)S(=O)(=O)c1ncccc1C [[^11C]2]												stable	good to excellent in vitro binding specificity	highest radioactivity levels in hippocampus and cerebellum (rat brain; [3]): 0.9 SUV; radioactivity level after washout in hippocampus and cerebellum (rat brain; [3]): 0.3 SUV; brain uptake (rat brain; baseline PET, SD rats): poor brain uptake; highest radioactivity levels in hippocampus and cerebellum (rat brain; baseline, SD rats, 2 min postadministration of tracer): around 0.4 SUV; radioactivity level after washout in hippocampus and cerebellum (rat brain; baseline, SD rats, 60 min scan): 0.2 SUV; bound radioactivity levels in hippocampus and cerebellum after blocking (rat brain; preadministration of EMPA 1 mg/kg i.v., SD rats): did not remarkably reduce
orexin-B: endogenous neuropeptide ligand, a 28 amino acid peptide														selectivity toward OX2R against OX1R (OX2R): > 10 folds
